Source: publication PMC7848139, “Novel Hybrid CHC from β-carboline and N-Hydroxyacrylamide Overcomes Drug-Resistant Hepatocellular Carcinoma by Promoting Apoptosis, DNA Damage, and Cell Cycle Arrest” (Frontiers in Pharmacology, 2021)

Tests used:
recombinant human HDAC3 = target: T1, recombinant human HDAC3 (Homo sapiens, UniProt O15379); assay: HDAC fluorimetric assay, HDAC3; assay type: biochemical; details: mean ± SD of three experiments
T1 construct: purchased Enzo Life Sciences Inc
Method: (§1) The assay was conducted according to the HDAC1/3/6/8 assay kit (Enzo Life Sciences Inc.). Each different concentrations of evaluated compounds were, respectively, incubated with each HDAC1/3/6/8 at coupling of corresponding HDAC substrate (Boc-Lys (Ac)-AMC) at 37°C for 60 min. Then stopping the reaction under adding lysine developer.

[1] = tested on: Bax, Bcl-2, caspase-3 in Bel7402/5-FU cells; assay: Western blotting of apoptosis-related proteins; assay type: cell-based, human; details: 72 h
Method: (§2) The HDAC, autophagy and apoptosis-related proteins were analyzed according to Western blotting assay. […]. And anti-Ac-histone H3, anti-Ac-histone H4, anti-Ac-α-tubulin, anti-Bax, anti-Bcl2, anti-H2AX (S139ph), anti-CDK1, anti-cyclin B, and anti-β-actin antibodies (Cell Signaling Technology, MA, United States) detected the target proteins after membranes were blocked with 5% fat-free milk. The peroxidase-conjugated secondary antibodies detected the bound antibodies for 1 h and visualized according to improved chemiluminescent reagent.
[…]; (B) The relative expression levels of each protein (Bax, Bcl-2, pro-caspase-3, and cleaved caspase-3) were quantitatively analyzed using β-actin as reference. The data are presented as the mean ± SD of three separated assays. *p < 0.01 vs. control.

[2] = tested on: SUMM-7721, Bel7402, Huh7, HCT116 and Bel7402/5FU cells; assay: MTT antiproliferative assay, range over the five cancer cell lines; assay type: cell-based; details: Homo sapiens; range over drug-sensitive SUMM-7721, Bel7402, Huh7, HCT116 and drug-resistant Bel7402/5FU cells
Method: (§3) Briefly, appropriate cells (1 × 10^4 cells/mL) were placed into 96-well plates in 100 μL of DMEM medium overnight. Then adding 100 μL of evaluated compounds into individual well for 72 h while 0.1% DMSO aqueous solution was treated as the negative control. After incubation with 30 μl MTT (5 mg/mL) for 4 h in all well, and ELISA plate reader measured absorbance of each well at 570 nm. Then calculating cytotoxicity effect of evaluated compounds through the formula: Cell inhibitory percentage (%) = (1−OD of treatment group/OD of control) × 100%.

recombinant human HDAC6 = target: T2, recombinant human HDAC6 (Homo sapiens, UniProt Q9UBN7); assay: HDAC fluorimetric assay, HDAC6; assay type: biochemical
T2 construct: purchased Enzo Life Sciences Inc
T2 sequence (Q9UBN7 1-1215): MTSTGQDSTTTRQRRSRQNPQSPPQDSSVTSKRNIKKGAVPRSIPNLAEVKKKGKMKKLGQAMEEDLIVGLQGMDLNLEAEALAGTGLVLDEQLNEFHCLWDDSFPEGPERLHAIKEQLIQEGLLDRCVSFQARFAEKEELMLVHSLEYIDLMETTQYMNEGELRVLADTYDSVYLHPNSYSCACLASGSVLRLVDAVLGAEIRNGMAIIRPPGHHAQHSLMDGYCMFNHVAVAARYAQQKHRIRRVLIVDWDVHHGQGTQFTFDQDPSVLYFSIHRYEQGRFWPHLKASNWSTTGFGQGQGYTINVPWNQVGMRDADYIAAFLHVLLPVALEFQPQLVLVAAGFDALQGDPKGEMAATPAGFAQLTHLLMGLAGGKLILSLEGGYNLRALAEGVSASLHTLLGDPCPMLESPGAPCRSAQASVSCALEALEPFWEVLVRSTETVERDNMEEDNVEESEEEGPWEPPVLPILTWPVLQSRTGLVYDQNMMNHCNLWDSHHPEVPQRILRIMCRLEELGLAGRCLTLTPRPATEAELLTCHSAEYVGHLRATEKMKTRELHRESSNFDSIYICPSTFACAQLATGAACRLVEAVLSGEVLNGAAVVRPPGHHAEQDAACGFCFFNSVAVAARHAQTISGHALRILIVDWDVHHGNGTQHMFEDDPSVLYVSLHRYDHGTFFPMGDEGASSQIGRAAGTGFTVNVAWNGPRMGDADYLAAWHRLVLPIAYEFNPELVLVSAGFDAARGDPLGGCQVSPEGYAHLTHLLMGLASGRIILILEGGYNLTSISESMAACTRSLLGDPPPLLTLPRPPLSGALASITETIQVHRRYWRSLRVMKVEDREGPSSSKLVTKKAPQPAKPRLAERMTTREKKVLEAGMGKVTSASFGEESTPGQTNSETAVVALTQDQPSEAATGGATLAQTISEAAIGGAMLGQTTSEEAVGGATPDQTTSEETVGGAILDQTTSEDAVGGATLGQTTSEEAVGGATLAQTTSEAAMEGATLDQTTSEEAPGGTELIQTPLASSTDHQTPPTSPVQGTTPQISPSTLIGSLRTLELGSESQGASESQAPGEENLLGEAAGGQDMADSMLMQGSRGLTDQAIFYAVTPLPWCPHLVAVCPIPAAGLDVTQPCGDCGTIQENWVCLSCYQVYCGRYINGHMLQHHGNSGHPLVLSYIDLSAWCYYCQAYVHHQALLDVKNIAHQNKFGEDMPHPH
Method: as §1

Huh7 = assay: MTT antiproliferative assay, Huh7; assay type: cell-based; details: Homo sapiens, Huh-7, 72 h, mean ± SD of three experiments, read-out: In vitro antiproliferative activity (IC50) Huh7
Method: as §3

Bel7402/5-FU = assay: MTT antiproliferative assay, Bel7402/5-FU; assay type: cell-based; details: Homo sapiens, drug-resistant HCC cells, 72 h, mean ± SD of three experiments, read-out: In vitro antiproliferative activity (IC50) Bel7402/5-FU
Method: as §3

[3] = tested on: Ac-histone H3, Ac-histone H4, Ac-α-tubulin in Bel7402/5-FU cells; assay: Western blotting of acetylated histone H3, H4 and α-tubulin; assay type: cell-based, human; details: 2.0 and 5.0 μM, 72 h
Method: as §2
The data (mean ± SD) were obtained from three independent assays. *p < 0.01 vs. control.

Bel7402 = assay: MTT antiproliferative assay, Bel7402; assay type: cell-based; details: Homo sapiens, Bel-7402, 72 h, mean ± SD of three experiments, read-out: In vitro antiproliferative activity (IC50) Bel7402
Method: as §3

Bel7402/5-FU cells = assay: Cell cycle analysis by flow cytometry; assay type: cell-based, human; details: 2.0 and 5.0 μM, 72 h
Method: The collected cells were ﬁxed in 70% ethanol at 4°C overnight, and then incubated with RNase A and using PI (Sigma-Aldrich) to stain. Flow cytometry evaluated the percent of Deoxyribonucleic acid (DNA) on ﬂow cytometer (Beckman Coulter). The ModFit LT (Verity, Software House, Topsham, ME, United States) analyzed distribution of cell cycles.
FIGURE 9 CHC caused G2/M arrest in Bel7402/5-FU cells (A) Bel7402/5-FU cells were treated with CHC at different concentrations (0, 2.0, and 5.0 μM) for 72 h; (B) Quantification of cell distribution per phase. Values (mean ± SD) were obtained from three separate experiments. *p < 0.01 vs. control.

T1 sequence (O15379 whole entry): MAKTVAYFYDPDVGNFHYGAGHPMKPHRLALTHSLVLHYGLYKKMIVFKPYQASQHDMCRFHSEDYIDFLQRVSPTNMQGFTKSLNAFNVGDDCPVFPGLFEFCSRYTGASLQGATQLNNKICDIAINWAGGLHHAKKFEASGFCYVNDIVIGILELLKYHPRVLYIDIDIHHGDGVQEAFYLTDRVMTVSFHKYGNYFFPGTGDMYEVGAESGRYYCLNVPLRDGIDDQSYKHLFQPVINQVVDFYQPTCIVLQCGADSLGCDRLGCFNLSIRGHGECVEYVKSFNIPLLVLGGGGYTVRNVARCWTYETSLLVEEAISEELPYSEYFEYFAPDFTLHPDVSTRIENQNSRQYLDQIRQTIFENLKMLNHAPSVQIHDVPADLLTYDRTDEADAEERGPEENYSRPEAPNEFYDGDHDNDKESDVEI
T1 sequence (O75376 395-489 partner limits assumed): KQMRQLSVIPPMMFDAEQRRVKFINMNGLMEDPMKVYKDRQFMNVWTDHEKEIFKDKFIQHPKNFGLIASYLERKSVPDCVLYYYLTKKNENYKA

IC50 (recombinant human HDAC3): 134 ± 16 nM
IC50 [2]: 1840 to 3270 nM
IC50 on HDAC6 relative to SAHA (recombinant human HDAC6; compared with SAHA): eight-fold lower
IC50 (recombinant human HDAC6; mean ± SD of three experiments): 7.6 ± 1 nM
fold lower IC50 on HDAC6 than on HDAC3 (recombinant human HDAC6; selectivity HDAC6 over HDAC3): 18 fold
IC50 (Huh7): 2890 ± 320 nM
IC50 (Bel7402/5-FU): 2170 ± 350 nM
IC50 (Bel7402): 1840 ± 230 nM
SMILES: CN(C)c1ccc(-c2nc(C(=O)NCc3ccc(/C=C/C(=O)NO)cc3)cc3c2[nH]c2ccccc23)cc1 [CHC, (E)-N-(4-(3-(hydroxyamino)-3-oxoprop-1-en-1-yl)benzyl)-1-(4-dimethylaminophenyl)-9H-pyrido [3,4-b]indole-3-carboxamide]
expression of Bax, Bcl-2 and cleavage of caspase-3 [1]: significantly upregulate the expression of Bax and cleavage of caspase-3 and downregulate the expression of Bcl-2
acetylation of H3, H4 and α-tubulin [3]: promoted the acetylation of H3, H4, and α-tubulin with increasing dose
cell cycle arrest (Bel7402/5-FU cells): significantly induced cell cycle arrest at the G2/M phase in a dose-dependent manner
